# Molecular target: T1, Mitogen-activated protein kinase 14 (Homo sapiens, UniProt Q16539)
# Experiment: Inhibition of p38alpha in human PBMC assessed as inhibition of LPS-induced IL1beta production after 16 to 18 hrs by ELISA
# T1 sequence (Q16539 whole entry): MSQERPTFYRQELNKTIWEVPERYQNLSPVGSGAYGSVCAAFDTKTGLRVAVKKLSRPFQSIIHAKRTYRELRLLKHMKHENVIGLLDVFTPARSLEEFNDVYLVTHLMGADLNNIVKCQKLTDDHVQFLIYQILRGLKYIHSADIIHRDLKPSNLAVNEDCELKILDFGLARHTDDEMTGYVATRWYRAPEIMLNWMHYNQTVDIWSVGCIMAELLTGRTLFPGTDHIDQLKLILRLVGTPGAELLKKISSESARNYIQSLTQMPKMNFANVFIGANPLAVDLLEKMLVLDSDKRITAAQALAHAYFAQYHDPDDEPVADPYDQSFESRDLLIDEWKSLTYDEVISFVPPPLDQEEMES
row,SMILES,IC50
1,O=c1ncn2nc(Sc3ccccc3)ccc2c1-c1c(Cl)cccc1Cl,400 nM
2,Cc1ccc(Sc2ccc3c(-c4c(Cl)cccc4Cl)c(=O)ncn3n2)cc1,370 nM
3,O=c1ncn2nc(Sc3ccccc3)ccc2c1-c1ccc(Cl)cc1Cl,20000 nM
4,COc1ccccc1-c1c(=O)ncn2nc(Sc3ccccc3)ccc12,2800 nM
5,O=c1ncn2nc(Sc3ccccc3)ccc2c1-c1ccccc1C(F)(F)F,2100 nM
6,O=c1ncn2nc(Sc3ccccc3)ccc2c1-c1c(F)cccc1C(F)(F)F,1000 nM
7,O=c1ncn2nc(Sc3ccccc3)ccc2c1-c1c(F)cccc1F,3700 nM
8,CCc1ccccc1Sc1ccc2c(-c3c(Cl)cccc3Cl)c(=O)ncn2n1,980 nM
9,Cc1ccc(Sc2ccc3c(-c4c(Cl)cccc4Cl)c(=O)ncn3n2)cc1C,2400 nM

# The next lines start with the values.
row,IC50,SMILES
1,440 nM,O=c1ncn2nc(Sc3cccc(F)c3)ccc2c1-c1c(Cl)cccc1Cl
2,180 nM,Cc1cc(Cl)ccc1Sc1ccc2c(-c3c(Cl)cccc3Cl)c(=O)ncn2n1
3,140 nM,O=c1ncn2nc(Sc3ccccc3O)ccc2c1-c1c(Cl)cccc1Cl
4,280 nM,Nc1cc(F)ccc1Sc1ccc2c(-c3c(Cl)cccc3Cl)c(=O)ncn2n1
5,330 nM,Cc1ccccc1Sc1ccc2c(-c3c(Cl)cccc3Cl)c(=O)ncn2n1
6,690 nM,Cc1ccc(Sc2ccc3c(-c4c(Cl)cccc4Cl)c(=O)ncn3n2)c(C)c1
7,53 nM,O=c1ncn2nc(Sc3ccc(F)cc3Cl)ccc2c1-c1c(Cl)cccc1Cl
8,180 nM,O=c1ncn2nc(Sc3ccc(F)c(Cl)c3)ccc2c1-c1c(Cl)cccc1Cl

# Molecular target: T1, Mitogen-activated protein kinase 14
# Experiment: Inhibition of p38alpha kinase using KRELVEPLTPSGEAPNQALLR as substrate for 20 mins by lactate dehydrogenase-coupled spectrophotometric assay
row,SMILES,IC50
1,O=c1ncn2nc(Sc3ccccc3)ccc2c1-c1c(Cl)cccc1Cl,250 nM
2,O=c1ncn2nc(Sc3ccc(Cl)c(Cl)c3)ccc2c1-c1c(Cl)cccc1Cl,800 nM
3,Cc1ccc(Sc2ccc3c(-c4c(Cl)cccc4Cl)c(=O)ncn3n2)cc1,1400 nM
4,O=c1ncn2nc(Sc3cccc(Cl)c3)ccc2c1-c1c(Cl)cccc1Cl,280 nM
5,O=c1ncn2nc(Sc3ccccc3)ccc2c1-c1ccc(Cl)cc1Cl,5000 nM
6,O=c1ncn2nc(Sc3ccccc3)ccc2c1-c1ccccc1,> 20000 nM
7,Cc1ccccc1-c1c(=O)ncn2nc(Sc3ccccc3)ccc12,4400 nM
8,COc1ccccc1-c1c(=O)ncn2nc(Sc3ccccc3)ccc12,12000 nM
9,O=c1ncn2nc(Sc3ccccc3)ccc2c1-c1ccccc1C(F)(F)F,11000 nM
10,O=c1ncn2nc(Sc3ccccc3)ccc2c1-c1ccccc1Cl,4100 nM
11,O=c1ncn2nc(Sc3ccccc3)ccc2c1-c1ccc(F)cc1,> 20000 nM
12,O=c1ncn2nc(Sc3ccccc3)ccc2c1-c1c(F)cccc1C(F)(F)F,1700 nM
13,O=c1ncn2nc(Sc3ccccc3)ccc2c1-c1c(F)cccc1F,3500 nM
14,CCc1ccccc1Sc1ccc2c(-c3c(Cl)cccc3Cl)c(=O)ncn2n1,750 nM
15,Cc1cccc(Sc2ccc3c(-c4c(Cl)cccc4Cl)c(=O)ncn3n2)c1,1400 nM
16,Cc1ccc(Sc2ccc3c(-c4c(Cl)cccc4Cl)c(=O)ncn3n2)cc1C,1900 nM

# Next, values leading:
row,IC50,SMILES
1,180 nM,Cc1cc(Cl)ccc1Sc1ccc2c(-c3c(Cl)cccc3Cl)c(=O)ncn2n1
2,360 nM,O=c1ncn2nc(Sc3ccccc3O)ccc2c1-c1c(Cl)cccc1Cl
3,220 nM,Nc1cc(F)ccc1Sc1ccc2c(-c3c(Cl)cccc3Cl)c(=O)ncn2n1
4,200 nM,Cc1ccccc1Sc1ccc2c(-c3c(Cl)cccc3Cl)c(=O)ncn2n1
5,123 nM,O=c1ncn2nc(Sc3ccc(F)cc3)ccc2c1-c1c(Cl)cccc1Cl
6,260 nM,Cc1ccc(Sc2ccc3c(-c4c(Cl)cccc4Cl)c(=O)ncn3n2)c(C)c1
7,36 nM,O=c1ncn2nc(Sc3ccc(F)cc3Cl)ccc2c1-c1c(Cl)cccc1Cl
8,500 nM,O=c1ncn2nc(Sc3ccc(F)c(Cl)c3)ccc2c1-c1c(Cl)cccc1Cl

# Molecular target: T1, Mitogen-activated protein kinase 14
# Experiment: Inhibition of p38alpha in human PBMC assessed as inhibition of LPS-induced TNFalpha production after 16 to 18 hrs by ELISA
row,SMILES,IC50
1,O=c1ncn2nc(Sc3ccccc3)ccc2c1-c1c(Cl)cccc1Cl,460 nM
2,O=c1ncn2nc(Sc3ccc(Cl)c(Cl)c3)ccc2c1-c1c(Cl)cccc1Cl,1200 nM
3,O=c1ncn2nc(Sc3ccccc3)ccc2c1-c1ccc(Cl)cc1Cl,20000 nM
4,Cc1ccccc1-c1c(=O)ncn2nc(Sc3ccccc3)ccc12,9700 nM
5,O=c1ncn2nc(Sc3ccccc3)ccc2c1-c1ccccc1C(F)(F)F,> 20000 nM
6,O=c1ncn2nc(Sc3ccccc3)ccc2c1-c1ccc(F)cc1,> 20000 nM
7,O=c1ncn2nc(Sc3ccccc3)ccc2c1-c1c(F)cccc1C(F)(F)F,3100 nM
8,O=c1ncn2nc(Sc3ccccc3)ccc2c1-c1c(F)cccc1F,15300 nM
9,CCc1ccccc1Sc1ccc2c(-c3c(Cl)cccc3Cl)c(=O)ncn2n1,2800 nM
10,Cc1ccc(Sc2ccc3c(-c4c(Cl)cccc4Cl)c(=O)ncn3n2)cc1C,3500 nM

# Next, values leading:
row,IC50,SMILES
1,720 nM,O=c1ncn2nc(Sc3cccc(F)c3)ccc2c1-c1c(Cl)cccc1Cl
2,160 nM,Cc1cc(Cl)ccc1Sc1ccc2c(-c3c(Cl)cccc3Cl)c(=O)ncn2n1
3,490 nM,O=c1ncn2nc(Sc3ccccc3O)ccc2c1-c1c(Cl)cccc1Cl
4,1200 nM,Nc1cc(F)ccc1Sc1ccc2c(-c3c(Cl)cccc3Cl)c(=O)ncn2n1
5,3700 nM,Cc1ccccc1Sc1ccc2c(-c3c(Cl)cccc3Cl)c(=O)ncn2n1
6,293 nM,O=c1ncn2nc(Sc3ccc(F)cc3)ccc2c1-c1c(Cl)cccc1Cl
7,320 nM,Cc1ccc(Sc2ccc3c(-c4c(Cl)cccc4Cl)c(=O)ncn3n2)c(C)c1
8,275 nM,O=c1ncn2nc(Sc3ccc(F)cc3Cl)ccc2c1-c1c(Cl)cccc1Cl
9,480 nM,O=c1ncn2nc(Sc3ccc(F)c(Cl)c3)ccc2c1-c1c(Cl)cccc1Cl

# — ChEMBL document CHEMBL2021894, “The Discovery of VX-745: A Novel and Selective p38α Kinase Inhibitor” (ACS Med Chem Lett, 2011)
